Results: publication PMC3690454, “14-3-3 Proteins Interact with a Hybrid Prenyl-Phosphorylation Motif to Inhibit G Proteins” (Cell, 2013)
Square brackets hold non-standard residues; d marks the D form. Ends that are not written are not given here. Peptide text beside a SMILES is read from it. * marks the point of attachment. Geranylgeranyl = CC(C)=CCC/C(C)=C/CC/C(C)=C/CC/C(C)=C/C*; Biotin = O=C1N[C@H]2[C@H](CS[C@H]2CCCCC(=O)*)N1; pT = C[C@@H](OP(=O)(O)O)[C@H](N)C(=O)O; pS = N[C@@H](COP(=O)(O)O)C(=O)O; Ahx = NCCCCCC(=O)O; Prenyl = CC(C)=CC*

Experiments:
hexa-His-tagged 14-3-3ζ = hexa-His-tagged 14-3-3ζ (UniProt P63104); assay: ITC; VP-ITC200; 14-3-3ζ at 50–60 μM, Rnd3 peptides at 500–600 μM; 50 mM Tris pH 7.5, 100 mM NaCl, 1 mM TCEP; 25°C, one-site model; non-binding peptides at 15°C and 25°C
14-3-3δ = target: T1, 14-3-3δ (Homo sapiens, UniProt P63104); assay: Biolayer interferometry (Octet Red96) of candidate protein C-terminal peptides, Table S5; assay type: binding; conditions: for affinity for 14-3-3 (in words): compared with farnesylated or geranylgeranylated Rnd3 peptides; for koff: typical experiment (n ≥ 3)
T1 construct: hexa-His; made in house; host or cells: E. coli BL21(DE3) Star
T1 sequence (P63104 1-245): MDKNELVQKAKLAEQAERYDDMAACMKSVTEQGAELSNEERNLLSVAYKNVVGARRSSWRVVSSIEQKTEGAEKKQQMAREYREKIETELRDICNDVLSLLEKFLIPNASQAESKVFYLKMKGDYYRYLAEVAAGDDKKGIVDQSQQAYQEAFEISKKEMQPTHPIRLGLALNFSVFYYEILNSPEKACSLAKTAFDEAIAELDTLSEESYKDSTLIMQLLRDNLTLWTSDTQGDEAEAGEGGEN
Description: (§1) Biolayer interferometry was carried out using an Octet RED96 instrument (ForteBio). Biotinylated peptides were immobilized on streptavadin-coated biosensors (ForteBio) at a concentration of 1 μg/ml in BI buffer (25 mM Tris, 150 mM NaCl, 0.1% Tween-20), for 300 s. The immobilization typically reached a response level of 2 nm. Association and dissociation curves were obtained through addition of a dilution series of 14-3-3ζ ([…]) for 300 s followed by dissociation in BI buffer for 300 s using the Octet acquisition software. The binding data were fitted using the Octet analysis software.
Table S5. Interactions of C-Terminal Peptides from Candidate Proteins with 14-3-3, […]
The affinities of the indicated phosphorylated and geranylgeranylated peptides for 14-3-3δ were determined by biolayer interferometry using an Octet Red96 instrument. Data of a typical experiment (n ≥ 3) along with statistics of the fit (χ2, R2) are shown. Peptide sequences from the C-terminus of the indicated proteins (last 10 amino acids of the mature protein sequence, terminating with Cys of CAAX box) are shown in single letter amino acid code, with pS/pT denoting phosphorylated serine/threonine. The modifications added to the C-terminal Cys are indicated. GG, geranylgeranylated; KD, dissociation constant; kon, association rate constant; koff, dissocation rate constant.

14-3-3ζ [1] = target: T2, 14-3-3ζ (Homo sapiens, UniProt P63104); assay: Biolayer interferometry (Octet RED96), immobilised biotinylated peptides, 14-3-3ζ in solution; assay type: binding; conditions: for Kd: kinetic fit, peptide immobilised at 1 μg/ml, 25 mM Tris, 150 mM NaCl, 0.1% Tween-20, association 300 s, dissociation 300 s, NB = no binding; for Kd / koff / kon: typical experiment (n ≥ 3)
T2 construct: hexa-His; made in house; host or cells: E. coli BL21(DE3) Star
T2 sequence (P63104 1-245): T1 sequence (P63104 1-245)
Description: as §1

14-3-3ζ [2] = target: T2, 14-3-3ζ; assay: Isothermal titration calorimetry of Rnd3 C-terminal peptides with 14-3-3ζ; assay type: binding; conditions: ITC, tested at 15°C and 25°C
Description: ITC measurements were carried out using a VP-ITC200 instrument (GE Healthcare). The 14-3-3ζ domain (see Extended Experimental Procedures) was used at 50–60 μM in ITC buffer (50 mM Tris [pH 7.5]), 100 mM NaCl, 1 mM TCEP). Rnd3 C-terminal peptides were solubilized in ITC buffer and used at 500–600 μM. Titrations were carried out at 25°C in triplicate. Each titration was fitted to a simple one-site binding model using the Origin software provided with the instrument. Titrations with nonbinding peptides were carried out at 15°C and 25°C.
GST-14-3-3β protein was expressed as previously reported ([Yaffe et al., 1997]). A hexa-His-tagged version of 14-3-3ζ was expressed and purified essentially as previously reported ([Kostelecky et al., 2009]). In brief, the E. coli strain BL21(DE3) Star (Invitrogen) was transformed with the expression plasmid that was maintained by 34 μg/ml chloramphenicol. E. coli cells were grown to OD600nm of 0.7-0.8 in TB medium at 37°C and protein expression induced by 1 mM IPTG for 5 hr at 30°C. Pelleted cells were suspended in buffer A (25 mM Tris [pH 7.5], 100 mM NaCl, 1 mM EDTA, and 1 mM DTT) and disrupted by sonication. Insoluble material was cleared by high-speed centrifugation and the cleared lysate applied to a 5 ml HisTrap column using an AKTA system (GE Healthcare). The 14-3-3ζ protein was eluted with a linear gradient (0–500 mM) of Imidazole in buffer A. Finally, the protein was subjected to size-exclusion chromatography using a High-Load S200 pg column. As previously described, 14-3-3ζ eluted as a dimer with a molecular weight of ∼60 kDa. The final yield of 14-3-3ζ was 30–40 mg per liter of TB medium.

“biotinylated Rnd3 C-terminal peptide, phosphorylated on S240 (+P−F)” was tested. Which dH (hexa-His-tagged 14-3-3ζ) did it give?
The dH was -5.68 kcal/mol.

And the stoichiometry N (hexa-His-tagged 14-3-3ζ)?
The stoichiometry N was 0.89.

Which results are given for `CC(C)=CCC/C(C)=C/CC/C(C)=C/CC/C(C)=C/CSC[C@H](NC(=O)[C@H](COP(=O)(O)O)NC(=O)[C@H](CCCCN)NC(=O)[C@H](CO)NC(=O)[C@H](CCCNC(=N)N)NC(=O)[C@H](CCCNC(=N)N)NC(=O)[C@H](CCC(=O)O)NC(=O)[C@@H](NC(=O)[C@H](CC(N)=O)NC(=O)[C@@H](NC(=O)CCCCCNC(=O)CCCC[C@@H]1SC[C@@H]2NC(=O)N[C@@H]21)[C@@H](C)O)[C@@H](C)O)C(=O)O` [RPRG] ({Biotin-Ahx}-TNTERRSK[pS]C(Geranylgeranyl)-OH)?
affinity for 14-3-3 (in words) (14-3-3δ): intermediate affinity; koff (14-3-3δ): 0.022 s⁻¹

Which results are given for `CC(C)=CCSC[C@H](NC(=O)[C@H](COP(=O)(O)O)NC(=O)[C@H](CCCCN)NC(=O)[C@H](C)NC(=O)[C@H](CCCCN)NC(=O)[C@H](CC(=O)O)NC(=O)[C@H](CCCCN)NC(=O)[C@H](CCCNC(=N)N)NC(=O)[C@H](CC(C)C)NC(=O)[C@H](CC(=O)O)NC(=O)CCCCCNC(=O)CCCC[C@@H]1SC[C@@H]2NC(=O)N[C@@H]21)C(=O)O` [+P+Ipr] ({Biotin-Ahx}-DLRKDKAK[pS]C(Prenyl)-OH)?
fold lower affinity for 14-3-3 compared to Rnd3 peptides with two, three and four isoprenyl groups (14-3-3ζ [1]): approximately 10 fold; Kd (14-3-3ζ [1]): 556 nM; koff (14-3-3ζ [1]): 0.13 s⁻¹; kon (14-3-3ζ [1]): 240000 M⁻¹ s⁻¹

How did the Kd (14-3-3ζ [1]) turn out when `CC(C)=CCC/C(C)=C/CC/C(C)=C/CC/C(C)=C/CSC[C@H](NC(=O)[C@H](COP(=O)(O)O)NC(=O)[C@H](CCCCN)NC(=O)[C@H](C)NC(=O)[C@H](CCCCN)NC(=O)[C@H](CC(=O)O)NC(=O)[C@H](CCCCN)NC(=O)[C@H](CCCNC(=N)N)NC(=O)[C@H](CC(C)C)NC(=O)[C@H](CC(=O)O)NC(=O)CCCCCNC(=O)CCCC[C@@H]1SC[C@@H]2NC(=O)N[C@@H]21)C(=O)O` [+P+GG] ({Biotin-Ahx}-DLRKDKAK[pS]C(Geranylgeranyl)-OH) was run?
Its Kd is 23.2 nM.

What about the koff (14-3-3ζ [1]) of the same compound?
Its koff is 0.021 s⁻¹.

What about the kon (14-3-3ζ [1]) of the same compound?
The kon was 890000 M⁻¹ s⁻¹.

How did the “binding to 14-3-3ζ (in words)” value (14-3-3ζ [2]) turn out when DLRKDKAKSC-OH [−P-F] was run?
Its value is “no binding”.

And the Kd (14-3-3ζ [1])?
The Kd was over 4000 nM.

What does the source list for “biotinylated Rnd3 C-terminal peptide, phosphorylated on S240 and farnesylated on C241 (+P+F)”?
dH (hexa-His-tagged 14-3-3ζ): -2.96 kcal/mol; stoichiometry N (hexa-His-tagged 14-3-3ζ): 0.83

How did the “affinity for 14-3-3 (in words)” value (14-3-3δ) turn out when `CC(C)=CCC/C(C)=C/CC/C(C)=C/CC/C(C)=C/CSC[C@H](NC(=O)[C@H](COP(=O)(O)O)NC(=O)[C@H](CO)NC(=O)[C@H](CCCCN)NC(=O)[C@H](CCCCN)NC(=O)[C@H](CCCNC(=N)N)NC(=O)[C@H](C)NC(=O)[C@H](CCCCN)NC(=O)CNC(=O)[C@@H]1CCCN1C(=O)CCCCCNC(=O)CCCC[C@@H]1SC[C@@H]2NC(=O)N[C@@H]21)C(=O)O` [Rap1B] ({Biotin-Ahx}-PGKARKKS[pS]C(Geranylgeranyl)-OH) was run?
The value was “lower affinity”.

And the koff (14-3-3δ)?
Its koff is 0.055 s⁻¹.

`CC(C)=CCC/C(C)=C/CC/C(C)=C/CC/C(C)=C/CSC[C@H](NC(=O)[C@@H](NC(=O)[C@H](CCCCN)NC(=O)[C@H](CO)NC(=O)[C@H](CCCCN)NC(=O)[C@H](CCCCN)NC(=O)[C@H](CC(=O)O)NC(=O)[C@H](CC(=O)O)NC(=O)CNC(=O)CNC(=O)CCCCCNC(=O)CCCC[C@@H]1SC[C@@H]2NC(=O)N[C@@H]21)[C@@H](C)OP(=O)(O)O)C(=O)O` [PDE6C] ({Biotin-Ahx}-GGDDKKSK[pT]C(Geranylgeranyl)-OH) was tested. Which koff (14-3-3δ) did it give?
The koff was 0.018 s⁻¹.
